Entries after “also recorded” stand apart in the source; their conditions may differ. Numbered stars: 1 amine (or outer) side, 2 acyl side, 3 side chain; on linkers, the order of the positions; unused ones are H or OH. Bridge positions count the residues as written; N and C are the ends. Square brackets hold non-standard residues; d marks the D form. Ends that are not written are not given here. GlyBU(C4) = Gly building unit (N-alpha-functionalized Gly) carrying a C4 alkyl chain (n = m = 4), bridged through a urea group; CO = O=C([*:1])[*:2]
Tested on: pY-EGFR
Assay: PAR4 induced EGFR tyrosine phosphorylation, HEK293 cells co-transfected with flg-Par4 and gfp-egfr (Western blot)
Format: cell-based, human
Conditions: HEK293 cells co-transfected with hPar4 and egfr; AYPGKF 200 μM; 100 μM; FIG. 13B
Description: FIG. 13A—Activation of PAR4 induces phosphorylation of EGFR. HEK293 cells were co-transfected with 0.4 μg of wt flg-Par4 and 0.8 μg of gfp-egfr. Cells were serum starved over night following AYPGKF PAR4 activation (200 μM) for 5-45 min. Detection by Western blot analyses of pY-EGFR and EGFR was performed using either anti-phospho tyrosine or anti EGFR antibodies respectively. PAR4 activation induces EGFR tyrosine phosphorylation within 15 min. FIG. 13B—Pc(4-4) inhibits EGFR phosphorylation. HEK293 cells were co-transfected with 0.8 μg of wt flg-Par4 and 1 μg of gfp-egfr. Cells were serum starved over night following AYPGKF PAR4 activation (200 μM) for 5-45 min in the presence and absence of PAR4 c(4-4) (100 μM). Detection by Western blot analyses of pEGFR and EGFR was performed using either anti-phospho tyrosine or anti EGFR antibodies (1:1000 dilution) respectively. […] FIG. 13C—PAR4 mutants F347L and D349A abolish pTyr-EGFR. HEK293 cells were transiently co-transfected with either flg-Par4 or flg-Par4D349A or flg-hPar4F347L with egfr1 plasmid. Cells were serum starved over night following AYPGKF PAR4 activation (200 μM) for 5-45 min. Detection by Western blot analyses of pY-EGFR and EGFR was performed using either anti-phospho tyrosine or anti-EGFR antibodies respectively. In the presence of flg-Par4 potent pTyr-EGFR1 is observed within 15′ and 30′ AYPGKF activation. […]

Substance: Pc(4-4): backbone cyclic analog of Formula I, m=n=4, ring size 30 atoms (S[GlyBU(C4)]EFRDK[GlyBU(C4)]; bridge 2-8 via CO; not fully specified; printed as SZ1EFRDKX3)
- inhibition of PAR4 induced pY-EGFR: potent inhibition; also recorded: potently inhibited

From patent publication US20230331781A1, “PAR4 DERIVED PEPTIDES, ANALOGS AND USES THEREOF” (Yissum Research Development Company of the Hebrew …, priority 2019, published 2023)
